# Values quoted from earlier work, collected in patent US7682606B2, “Methods of producing edible fungi containing activated folates and nutritional supplements containing activated folates” (Jarrow Formulas, Inc., priority 2003, dated 2010).
# Assays:
# homocysteine = settings: human
# [1] = animal
SMILES,"Reducing homocysteine, compared with racemic D,L mixtures (homocysteine)",Intestinal absorption after oral administration [1]
"CN1c2c(nc(N)[nH]c2=O)NCC1CNc1ccc(C(=O)N[C@@H](CCC(=O)O)C(=O)O)cc1 (single isomer, unassigned) [L-isomer of 5-MTHF, 5-methyltetrahydrofolate]",superior to racemic mixtures,–
"CN1c2c(nc(N)[nH]c2=O)NCC1CNc1ccc(C(=O)N[C@@H](CCC(=O)O)C(=O)O)cc1 (some centres unmarked) [5-MTHF, 5-methyltetrahydrofolate]",–,readily absorbed from the intestinal tract without degradation
